Key:
Test in all cases: KINOMEscan
SYK = biological target: T1, SYK (Homo sapiens, UniProt P43405); format: binding; settings: read-out: % Ctrl
T1 construct: purchased DiscoveRx KINOMEscan

BRSK1 = biological target: T2, BRSK1 (Homo sapiens, UniProt Q8TDC3); format: binding; settings: read-out: % Ctrl
T2 construct: purchased DiscoveRx KINOMEscan

EGFR(L858R,T790M) = biological target: T3, EGFR(L858R,T790M) (Homo sapiens, UniProt P00533, L858R/T790M); format: binding; settings: read-out: % Ctrl
T3 construct: purchased DiscoveRx KINOMEscan
T3 sequence (P00533 25-1210 T790M/L858R): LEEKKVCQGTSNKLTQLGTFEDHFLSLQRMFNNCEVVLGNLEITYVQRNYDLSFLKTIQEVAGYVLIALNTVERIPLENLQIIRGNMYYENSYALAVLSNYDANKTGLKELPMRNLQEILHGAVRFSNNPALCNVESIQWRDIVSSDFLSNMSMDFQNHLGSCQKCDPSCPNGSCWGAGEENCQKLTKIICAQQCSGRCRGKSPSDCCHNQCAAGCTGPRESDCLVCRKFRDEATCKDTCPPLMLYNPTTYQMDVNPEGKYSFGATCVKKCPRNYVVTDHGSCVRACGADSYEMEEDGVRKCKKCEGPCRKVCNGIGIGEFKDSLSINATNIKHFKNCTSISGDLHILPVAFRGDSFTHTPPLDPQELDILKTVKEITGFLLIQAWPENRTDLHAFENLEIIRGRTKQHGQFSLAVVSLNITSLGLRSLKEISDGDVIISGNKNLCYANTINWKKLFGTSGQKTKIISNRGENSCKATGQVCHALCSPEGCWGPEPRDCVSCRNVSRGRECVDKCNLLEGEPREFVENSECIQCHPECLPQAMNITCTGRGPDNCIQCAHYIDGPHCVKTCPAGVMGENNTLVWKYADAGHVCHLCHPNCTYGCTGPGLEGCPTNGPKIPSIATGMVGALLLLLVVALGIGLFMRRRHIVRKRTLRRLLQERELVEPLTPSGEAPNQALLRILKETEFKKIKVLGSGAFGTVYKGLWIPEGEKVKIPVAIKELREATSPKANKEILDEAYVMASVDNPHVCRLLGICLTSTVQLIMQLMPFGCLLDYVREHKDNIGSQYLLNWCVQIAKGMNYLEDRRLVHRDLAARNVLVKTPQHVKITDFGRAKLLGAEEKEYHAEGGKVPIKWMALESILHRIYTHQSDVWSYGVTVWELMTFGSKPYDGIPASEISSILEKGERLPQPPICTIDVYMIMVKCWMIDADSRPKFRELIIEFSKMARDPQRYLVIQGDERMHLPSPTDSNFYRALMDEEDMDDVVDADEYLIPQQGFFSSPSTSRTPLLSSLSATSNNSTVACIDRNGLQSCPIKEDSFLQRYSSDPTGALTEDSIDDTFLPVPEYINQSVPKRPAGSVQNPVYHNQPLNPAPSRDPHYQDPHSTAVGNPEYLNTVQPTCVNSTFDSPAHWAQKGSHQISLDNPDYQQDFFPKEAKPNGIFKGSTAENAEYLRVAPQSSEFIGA

HIPK3 = biological target: T4, HIPK3 (Homo sapiens, UniProt Q9H422); format: binding; settings: read-out: % Ctrl
T4 construct: purchased DiscoveRx KINOMEscan

QSK = biological target: T5, QSK (Homo sapiens, UniProt Q9Y2K2); format: binding; settings: read-out: % Ctrl
T5 construct: purchased DiscoveRx KINOMEscan

PFTK1 = biological target: T6, PFTK1 (Homo sapiens, UniProt O94921); format: binding; settings: read-out: % Ctrl
T6 construct: purchased DiscoveRx KINOMEscan

PAK1 = biological target: T7, PAK1 (Homo sapiens, UniProt Q13153); format: binding; settings: read-out: % Ctrl
T7 construct: purchased DiscoveRx KINOMEscan

EPHA7 = biological target: T8, EPHA7 (Homo sapiens, UniProt Q15375); format: binding; settings: read-out: % Ctrl
T8 construct: purchased DiscoveRx KINOMEscan

MST1R = biological target: T9, MST1R (Homo sapiens, UniProt Q04912); format: binding; settings: read-out: % Ctrl
T9 construct: purchased DiscoveRx KINOMEscan

CSNK1G1 = biological target: T10, CSNK1G1 (Homo sapiens, UniProt Q9HCP0); format: binding; settings: read-out: % Ctrl
T10 construct: purchased DiscoveRx KINOMEscan
T10 sequence (Q9HCP0 whole entry): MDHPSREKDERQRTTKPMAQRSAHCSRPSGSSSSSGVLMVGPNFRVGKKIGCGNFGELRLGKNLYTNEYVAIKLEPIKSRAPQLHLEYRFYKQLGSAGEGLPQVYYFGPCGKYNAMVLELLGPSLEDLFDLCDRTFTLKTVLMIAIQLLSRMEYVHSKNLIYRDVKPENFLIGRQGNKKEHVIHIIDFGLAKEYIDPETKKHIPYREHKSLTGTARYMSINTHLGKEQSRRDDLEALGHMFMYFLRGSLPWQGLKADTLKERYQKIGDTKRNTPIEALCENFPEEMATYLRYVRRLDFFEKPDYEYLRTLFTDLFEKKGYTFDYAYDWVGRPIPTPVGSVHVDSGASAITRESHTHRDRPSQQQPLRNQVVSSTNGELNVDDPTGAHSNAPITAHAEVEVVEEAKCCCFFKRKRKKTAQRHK

INSRR = biological target: T11, INSRR (Homo sapiens, UniProt P14616); format: binding; settings: read-out: % Ctrl
T11 construct: purchased DiscoveRx KINOMEscan

NEK10 = biological target: T12, NEK10 (Homo sapiens, UniProt Q6ZWH5); format: binding; settings: read-out: % Ctrl
T12 construct: purchased DiscoveRx KINOMEscan

SRPK3 = biological target: T13, SRPK3 (Homo sapiens, UniProt Q9UPE1); format: binding; settings: read-out: % Ctrl
T13 construct: purchased DiscoveRx KINOMEscan
T13 sequence (Q9UPE1 whole entry): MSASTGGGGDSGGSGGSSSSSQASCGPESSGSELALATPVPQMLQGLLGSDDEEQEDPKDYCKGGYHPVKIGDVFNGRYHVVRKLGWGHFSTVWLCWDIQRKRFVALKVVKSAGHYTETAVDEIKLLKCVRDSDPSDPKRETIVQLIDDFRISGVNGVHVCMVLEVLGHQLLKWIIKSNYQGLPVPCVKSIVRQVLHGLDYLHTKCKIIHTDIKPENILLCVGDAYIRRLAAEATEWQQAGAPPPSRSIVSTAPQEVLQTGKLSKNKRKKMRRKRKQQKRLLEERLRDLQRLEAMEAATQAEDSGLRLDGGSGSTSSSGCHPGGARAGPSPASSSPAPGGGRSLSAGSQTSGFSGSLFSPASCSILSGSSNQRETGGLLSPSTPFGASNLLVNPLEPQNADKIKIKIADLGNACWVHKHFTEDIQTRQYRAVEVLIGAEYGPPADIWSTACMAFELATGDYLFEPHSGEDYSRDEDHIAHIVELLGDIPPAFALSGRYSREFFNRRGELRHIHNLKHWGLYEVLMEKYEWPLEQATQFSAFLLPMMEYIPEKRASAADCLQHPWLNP

ABL1(Q252H)-nonP = biological target: T14, ABL1(Q252H)-nonP (Homo sapiens, UniProt P00519, Q252H); format: binding; settings: read-out: % Ctrl
T14 construct: purchased DiscoveRx KINOMEscan

LCK = biological target: T15, LCK (Homo sapiens, UniProt P06239); format: binding; settings: read-out: % Ctrl
T15 construct: purchased DiscoveRx KINOMEscan
T15 sequence (P06239 whole entry): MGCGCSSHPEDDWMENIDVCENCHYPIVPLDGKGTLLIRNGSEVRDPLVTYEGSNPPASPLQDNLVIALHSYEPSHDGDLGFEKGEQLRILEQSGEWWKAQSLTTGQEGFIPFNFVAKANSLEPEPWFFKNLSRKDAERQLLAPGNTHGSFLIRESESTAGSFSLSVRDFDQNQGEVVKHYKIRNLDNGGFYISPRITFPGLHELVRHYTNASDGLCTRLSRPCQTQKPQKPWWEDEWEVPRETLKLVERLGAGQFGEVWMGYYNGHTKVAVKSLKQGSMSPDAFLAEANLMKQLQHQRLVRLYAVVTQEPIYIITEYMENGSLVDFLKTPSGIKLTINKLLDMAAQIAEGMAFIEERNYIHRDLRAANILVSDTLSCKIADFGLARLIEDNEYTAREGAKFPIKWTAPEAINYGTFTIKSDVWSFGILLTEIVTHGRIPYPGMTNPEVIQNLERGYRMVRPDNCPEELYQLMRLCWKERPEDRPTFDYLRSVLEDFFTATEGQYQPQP

TIE1 = biological target: T16, TIE1 (Homo sapiens, UniProt P35590); format: binding; settings: read-out: % Ctrl
T16 construct: purchased DiscoveRx KINOMEscan

EGFR(L861Q) = biological target: T17, EGFR(L861Q) (Homo sapiens, UniProt P00533, L861Q); format: binding; settings: read-out: % Ctrl
T17 construct: purchased DiscoveRx KINOMEscan

RAF1 = biological target: T18, RAF1 (Homo sapiens, UniProt P04049); format: binding; settings: read-out: % Ctrl
T18 construct: purchased DiscoveRx KINOMEscan

MAP3K1 = biological target: T19, MAP3K1 (Homo sapiens, UniProt Q13233); format: binding; settings: read-out: % Ctrl
T19 construct: purchased DiscoveRx KINOMEscan

BMPR1A = biological target: T20, BMPR1A (Homo sapiens, UniProt P36894); format: binding; settings: read-out: % Ctrl
T20 construct: purchased DiscoveRx KINOMEscan

TBK1 = biological target: T21, TBK1 (Homo sapiens, UniProt Q9UHD2); format: binding; settings: read-out: % Ctrl
T21 construct: purchased DiscoveRx KINOMEscan

PLK1 = biological target: T22, PLK1 (Homo sapiens, UniProt P53350); format: binding; settings: read-out: % Ctrl
T22 construct: purchased DiscoveRx KINOMEscan

PCTK3 = biological target: T23, PCTK3 (Homo sapiens, UniProt Q07002); format: binding; settings: read-out: % Ctrl
T23 construct: purchased DiscoveRx KINOMEscan

RET(V804M) = biological target: T24, RET(V804M) (Homo sapiens, UniProt P07949, V804M); format: binding; settings: read-out: % Ctrl
T24 construct: purchased DiscoveRx KINOMEscan

YANK1 = biological target: T25, YANK1 (Homo sapiens, UniProt Q8WU08); format: binding; settings: read-out: % Ctrl
T25 construct: purchased DiscoveRx KINOMEscan

ABL1(F317I)-nonP = biological target: T26, ABL1(F317I)-nonP (Homo sapiens, UniProt P00519, F317I); format: binding; settings: read-out: % Ctrl
T26 construct: purchased DiscoveRx KINOMEscan

FGR = biological target: T27, FGR (Homo sapiens, UniProt P09769); format: binding; settings: read-out: % Ctrl
T27 construct: purchased DiscoveRx KINOMEscan

WEE1 = biological target: T28, WEE1 (Homo sapiens, UniProt P30291); format: binding; settings: read-out: % Ctrl
T28 construct: purchased DiscoveRx KINOMEscan

RPS6KA4(KD1-N-t.) = biological target: T29, RPS6KA4(KD1-N-t.) (Homo sapiens, UniProt O75676); format: binding; settings: read-out: % Ctrl
T29 construct: RPS6KA4(KD1-N-t.); purchased DiscoveRx KINOMEscan
T29 sequence (O75676 1-371 limits assumed): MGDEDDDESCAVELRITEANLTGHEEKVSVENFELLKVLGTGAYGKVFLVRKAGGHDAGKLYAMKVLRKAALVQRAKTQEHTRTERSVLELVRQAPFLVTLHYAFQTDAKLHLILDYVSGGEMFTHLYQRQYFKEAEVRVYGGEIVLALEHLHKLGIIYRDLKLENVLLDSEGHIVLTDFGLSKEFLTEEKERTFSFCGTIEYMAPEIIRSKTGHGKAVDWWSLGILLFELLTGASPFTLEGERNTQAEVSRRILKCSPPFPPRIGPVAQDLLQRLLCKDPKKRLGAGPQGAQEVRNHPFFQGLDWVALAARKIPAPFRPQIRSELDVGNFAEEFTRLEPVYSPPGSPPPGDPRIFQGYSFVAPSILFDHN

PIKFYVE = biological target: T30, PIKFYVE (Homo sapiens, UniProt Q9Y2I7); format: binding; settings: read-out: % Ctrl
T30 construct: purchased DiscoveRx KINOMEscan

IRAK3 = biological target: T31, IRAK3 (Homo sapiens, UniProt Q9Y616); format: binding; settings: read-out: % Ctrl
T31 construct: purchased DiscoveRx KINOMEscan

RET = biological target: T32, RET (Homo sapiens, UniProt P07949); format: binding; settings: read-out: % Ctrl
T32 construct: purchased DiscoveRx KINOMEscan

EGFR(L747-T751del,Sins) = format: binding, human; settings: 1 µM
DYRK1A = biological target: T33, DYRK1A (Homo sapiens, UniProt Q13627); format: binding; settings: read-out: % Ctrl
T33 construct: purchased DiscoveRx KINOMEscan

RSK2(KD1-N-t.) = biological target: T34, RSK2(KD1-N-t.) (Homo sapiens, UniProt P51812); format: binding; settings: read-out: % Ctrl
T34 construct: RSK2(KD1-N-t.); purchased DiscoveRx KINOMEscan

NDR2 = biological target: T35, NDR2 (Homo sapiens, UniProt Q9Y2H1); format: binding; settings: read-out: % Ctrl
T35 construct: purchased DiscoveRx KINOMEscan

TAOK1 = biological target: T36, TAOK1 (Homo sapiens, UniProt Q7L7X3); format: binding; settings: read-out: % Ctrl
T36 construct: purchased DiscoveRx KINOMEscan
T36 sequence (Q7L7X3 whole entry): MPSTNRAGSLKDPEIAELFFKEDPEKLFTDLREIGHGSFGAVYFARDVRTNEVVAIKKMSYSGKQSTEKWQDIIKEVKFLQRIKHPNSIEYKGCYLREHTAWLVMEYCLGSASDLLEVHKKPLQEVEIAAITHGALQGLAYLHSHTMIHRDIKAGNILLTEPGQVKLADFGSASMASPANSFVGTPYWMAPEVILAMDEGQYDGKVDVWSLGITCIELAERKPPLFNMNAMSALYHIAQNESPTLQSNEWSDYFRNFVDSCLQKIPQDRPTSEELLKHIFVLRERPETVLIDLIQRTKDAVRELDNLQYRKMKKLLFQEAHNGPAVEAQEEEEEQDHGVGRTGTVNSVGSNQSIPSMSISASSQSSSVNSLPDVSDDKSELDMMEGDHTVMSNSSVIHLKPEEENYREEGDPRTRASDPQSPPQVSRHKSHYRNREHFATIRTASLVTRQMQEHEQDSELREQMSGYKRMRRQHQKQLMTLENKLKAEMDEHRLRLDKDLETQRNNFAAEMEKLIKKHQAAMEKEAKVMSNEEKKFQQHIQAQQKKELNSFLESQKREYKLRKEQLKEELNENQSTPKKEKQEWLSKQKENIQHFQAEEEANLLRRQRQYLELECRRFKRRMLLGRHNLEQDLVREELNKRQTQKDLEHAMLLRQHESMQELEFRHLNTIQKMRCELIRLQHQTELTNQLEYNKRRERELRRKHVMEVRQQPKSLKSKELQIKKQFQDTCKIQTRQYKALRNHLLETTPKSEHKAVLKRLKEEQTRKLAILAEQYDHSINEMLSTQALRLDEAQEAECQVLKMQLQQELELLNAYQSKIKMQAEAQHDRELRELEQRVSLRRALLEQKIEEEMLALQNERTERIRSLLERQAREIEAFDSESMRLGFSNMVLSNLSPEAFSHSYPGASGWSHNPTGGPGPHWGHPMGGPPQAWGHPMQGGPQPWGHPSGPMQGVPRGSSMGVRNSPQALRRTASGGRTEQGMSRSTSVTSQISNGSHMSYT

CSNK1G2 = biological target: T37, CSNK1G2 (Homo sapiens, UniProt P78368); format: binding; settings: read-out: % Ctrl
T37 construct: purchased DiscoveRx KINOMEscan

EPHB2 = biological target: T38, EPHB2 (Homo sapiens, UniProt P29323); format: binding; settings: read-out: % Ctrl
T38 construct: purchased DiscoveRx KINOMEscan

CSK = biological target: T39, CSK (Homo sapiens, UniProt P41240); format: binding; settings: read-out: % Ctrl
T39 construct: purchased DiscoveRx KINOMEscan

FLT3(N841I) = biological target: T40, FLT3(N841I) (Homo sapiens, UniProt P36888, N841I); format: binding; settings: read-out: % Ctrl
T40 construct: purchased DiscoveRx KINOMEscan

FLT3(D835Y) = biological target: T41, FLT3(D835Y) (Homo sapiens, UniProt P36888, D835Y); format: binding; settings: read-out: % Ctrl
T41 construct: purchased DiscoveRx KINOMEscan

EPHB1 = biological target: T42, EPHB1 (Homo sapiens, UniProt P54762); format: binding; settings: read-out: % Ctrl
T42 construct: purchased DiscoveRx KINOMEscan

T2 sequence (Q8TDC3 whole entry): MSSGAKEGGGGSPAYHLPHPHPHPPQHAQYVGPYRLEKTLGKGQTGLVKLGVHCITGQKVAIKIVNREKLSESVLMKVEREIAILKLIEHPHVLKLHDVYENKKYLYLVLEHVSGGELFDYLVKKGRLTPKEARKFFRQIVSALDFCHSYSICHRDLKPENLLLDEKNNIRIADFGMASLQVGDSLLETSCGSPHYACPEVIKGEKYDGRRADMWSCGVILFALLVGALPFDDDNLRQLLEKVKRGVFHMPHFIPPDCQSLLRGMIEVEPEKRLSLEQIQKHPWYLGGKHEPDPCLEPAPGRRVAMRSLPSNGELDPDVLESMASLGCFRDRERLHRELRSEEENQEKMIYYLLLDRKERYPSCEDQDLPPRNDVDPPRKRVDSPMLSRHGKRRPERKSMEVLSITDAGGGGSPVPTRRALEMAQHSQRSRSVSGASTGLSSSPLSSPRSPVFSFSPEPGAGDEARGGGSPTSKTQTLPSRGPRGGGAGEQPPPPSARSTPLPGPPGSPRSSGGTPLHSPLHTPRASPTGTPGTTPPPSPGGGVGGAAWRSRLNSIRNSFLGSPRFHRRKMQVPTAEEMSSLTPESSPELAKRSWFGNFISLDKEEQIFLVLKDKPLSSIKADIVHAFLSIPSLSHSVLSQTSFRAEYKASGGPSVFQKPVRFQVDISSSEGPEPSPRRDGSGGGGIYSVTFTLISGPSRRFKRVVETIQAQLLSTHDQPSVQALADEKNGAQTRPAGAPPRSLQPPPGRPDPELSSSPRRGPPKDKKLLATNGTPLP

For `CN1CCC(CNc2ccc3ncc(C(=O)Nc4cccc(OC(F)(F)F)c4)n3n2)CC1` [Cpd 2], the remaining binding at 1 µM (SYK) was 94%, the remaining binding at 1 µM (BRSK1) was 100% and the remaining binding at 1 µM (EGFR(L858R,T790M)) was 100%. It also gave a remaining binding at 1 µM (HIPK3) of 100%, a remaining binding at 1 µM (QSK) of 100% and a remaining binding at 1 µM (PFTK1) of 97%. It also gave a remaining binding at 1 µM (PAK1) of 100%, a remaining binding at 1 µM (EPHA7) of 100% and a remaining binding at 1 µM (MST1R) of 100%. For the same compound, the remaining binding at 1 µM (CSNK1G1) was 99%, the remaining binding at 1 µM (INSRR) was 94% and the remaining binding at 1 µM (NEK10) was 85%. It also gave a remaining binding at 1 µM (SRPK3) of 77%, a remaining binding at 1 µM (ABL1(Q252H)-nonP) of 94% and a remaining binding at 1 µM (LCK) of 77%. For the same compound, the remaining binding at 1 µM (TIE1) was 90%, the remaining binding at 1 µM (EGFR(L861Q)) was 94% and the remaining binding at 1 µM (RAF1) was 100%. For the same compound, the remaining binding at 1 µM (MAP3K1) was 100%, the remaining binding at 1 µM (BMPR1A) was 97% and the remaining binding at 1 µM (TBK1) was 100%. It also gave a remaining binding at 1 µM (PLK1) of 98%, a remaining binding at 1 µM (PCTK3) of 100% and a remaining binding at 1 µM (RET(V804M)) of 97%. It also gave a remaining binding at 1 µM (YANK1) of 100%, a remaining binding at 1 µM (ABL1(F317I)-nonP) of 61% and a remaining binding at 1 µM (FGR) of 77%. The remaining binding at 1 µM (WEE1) was 96%, the remaining binding at 1 µM (RPS6KA4(KD1-N-t.)) was 92% and the remaining binding at 1 µM (PIKFYVE) was 45%. For the same compound, the remaining binding at 1 µM (IRAK3) was 100%, the remaining binding at 1 µM (RET) was 88% and the “% Ctrl” value (EGFR(L747-T751del,Sins)) was 87%. The remaining binding at 1 µM (DYRK1A) was 100%, the remaining binding at 1 µM (RSK2(KD1-N-t.)) was 89% and the remaining binding at 1 µM (NDR2) was 91%. It also gave a remaining binding at 1 µM (TAOK1) of 82%, a remaining binding at 1 µM (CSNK1G2) of 100% and a remaining binding at 1 µM (EPHB2) of 95%. For the same compound, the remaining binding at 1 µM (CSK) was 100%, the remaining binding at 1 µM (FLT3(N841I)) was 60% and the remaining binding at 1 µM (FLT3(D835Y)) was 65%. The remaining binding at 1 µM (EPHB1) was 97%.

Reference: article PMC7407272, “Induction of Lysosome Membrane Permeabilization as a Therapeutic Strategy to Target Pancreatic Cancer Stem Cells” (Cancers, 2020)
